From ChEMBL document CHEMBL1142342, “Lignans from the fruits of Forsythia suspensa” (Bioorg Med Chem Lett, 2008)
Active and inactive are the calls of the source. The calls are words filed in the database; no cut-off is given here.

Key:
LLC-PK1 [1] = assay: Protective effect against 3-morpholinosydnonimine-induced cell death in pig LLC-PK1 cells after 1 hr by MTT assay; format: functional, cell-based; settings: Sus scrofa
LLC-PK1 [2] = assay: Protective effect against 3-morpholinosydnonimine-induced cell death in pig LLC-PK1 cells assessed as viability at 50 uM after 1 hr by MTT assay; format: functional; settings: Sus scrofa, LLC-PK1, 1 h; read-out: Activity
LLC-PK1 [3] = assay: Cytotoxicity against pig LLC-PK1 cells; format: cell-based, Sus scrofa
LLC-PK1 [4] = assay: Inhibition of 3-morpholinosydnonimine-induced LDH release in pig LLC-PK1 cells at 50 uM after 24 hrs; format: functional, cell-based; settings: Sus scrofa
LLC-PK1 [5] = assay: Inhibition of 3-morpholinosdynonimine-induced LDH release in pig LLC-PK1 cells at 10 uM after 24 hrs; format: functional, cell-based; settings: Sus scrofa
LLC-PK1 [6] = assay: Inhibition of 3-morpholinosydnonimine-induced LDH release in pig LLC-PK1 cells after 24 hrs; format: functional, cell-based; settings: Sus scrofa

Row | Compound | Activity (LLC-PK1 [1]) | viability at 50 µM (LLC-PK1 [2]) [%] | Activity (LLC-PK1 [3]) | Activity (LLC-PK1 [4]) | Activity (LLC-PK1 [5]) | Activity (LLC-PK1 [6])
1 | COc1cc(O)cc([C@H]2OC[C@H](C(=O)c3ccc(O)c(OC)c3)[C@@H]2CO)c1 [FORSYTHIALAN A] | Dose-dependent effect | 95 | Non-toxic | Active | Active | –
2 | COc1cc(O)cc([C@H]2OC[C@H](C(=O)c3ccc(OC)c(OC)c3)[C@@H]2CO)c1 [FORSYTHIALAN B] | Dose-dependent effect | 85 | Non-toxic | – | – | Active
